Tests used:
Rabbit Eyes = experiment: Intraocular pressure reduction in rabbit eyes after topical ocular dosing; format: in vivo;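 also: mean IOP reduction per time point from 7-8 rabbits per group, drug-treated groups alongside vehicle-treated control groups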
[1] = test system: Ocular Hypertensive Monkey Eyes; experiment: Intraocular pressure reduction in conscious ocular hypertensive cynomolgus monkey eyes after topical ocular dosing; format: in vivo;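 also: mean of 8 drug-treated monkeys per time point, IOP change expressed against a vehicle-dosed control group of 5 monkeys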
[2] = target: T1, Human Recombinant ROCK II Enzyme (Homo sapiens, UniProt O75116); experiment: High throughput human recombinant ROCK II enzyme inhibition assay (γ-33P-ATP, Long S6 substrate peptide, filter mat); format: biochemical; conditions: mean ± SEM; for Hill Coefficient (nH): Hill coefficient of the inhibition plots; for IC50: recombinant human ROCK II (aa 11-552), 100 μM ATP, 30 min at 30° C., read-out: Inhibition Constant (IC50)
T1 construct: purchased Upstate USA, Inc., Lake Placid, N.Y. 14-451
Method: The enzyme assays are performed using a Biomek 2000 Robotic Workstation (Beckman Instruments, Palo Alto, Calif.) in a 96-well format using γ-^33P-ATP (Perkin-Elmer Life Sciences, Boston, Mass.). Stock γ-^33P-ATP (3000 Ci/mmol) is diluted to 1 μCi/μl with the MgCl2/ATP cocktail solution. The concentrations of MgCl2/ATP used are 15 mM and 100 μM, respectively. […] The unutilized [γ-^33P]-ATP and other residual reagents are thereby eliminated from the filter mat but the radioactive phosphorylated peptide product is retained on the filter mat for quantification. The automated washing of the filter mat thereby enhances the signal-to-noise ratio of the assay thus rendering it into a sensitive assay. The filter mats bearing the captured radioactive phosphorylated product are then dried in a microwave oven for 15 sec, placed in special sample cellophane bag (Wallac Inc., Turku, Finland) designed for these filter mats and covered with 20 ml of Betaplate scintillation fluid (Perkin-Elmer Inc., Boston, Mass.). The bags are then sealed using a heat sealer device (Wallac Inc., Turku, Finland) and a roller used to evenly spread the scintillation fluid over the whole of the filter mat.
In a further embodiment of the present invention, the dried filter mat can be covered with a solid scintillant (MELTILEX®; Wallac Inc., Turku, Finland) that is melted directly onto the filter mat using a MELTILEX® heat sealer (Wallac Inc., Turku, Finland), a device designed for this purpose. The coated filter mat is then placed in a sample cellophane bag (Wallac Inc., Turku, Finland) designed for these filter mats that is then sealed and the radioactivity determined as described above. The solid scintillant assists in avoiding the spread of radioactivity from sample to sample on the dried filter mat and thus minimizes variation of the data. A solid scintillant also eliminates waste disposal of liquid scintillation fluid.
The raw data from the filter mats are then automatically sent electronically to a computer for semi-automated analyses using algorithms and a suite of programs (XLFITT computer program; IDBS corporation, Emeryville, Calif.) that perform non-linear, iterative, sigmoidal-fit analyses of the raw data.

[3] = topical ocular dose 500 μg, 1 Hour Post Dosing
[4] = topical ocular dose 500 μg, 2 Hours Post Dosing
[5] = topical ocular dose 500 μg, 3 Hours Post Dosing
[6] = topical ocular dose 500 μg, 4 Hours Post Dosing
[7] = topical ocular dose 1 mg, 1 Hour Post Dosing
[8] = topical ocular dose 1 mg, 3 Hours Post Dosing
[9] = topical ocular dose 300 μg, 1 Hour Post Dosing
[10] = topical ocular dose 300 μg, 3 Hours Post Dosing
[11] = topical ocular dose 300 μg, 6 Hours Post Dosing
[12] = topical ocular dose 1 mg, 6 Hours Post Dosing
[13] = topical ocular dose 300 μg, 2 Hours Post Dosing
[14] = topical ocular dose 300 μg, 4 Hours Post Dosing
[15] = topical ocular dose 500 μg, 6 Hours Post Dosing

T1 sequence (O75116 11-552): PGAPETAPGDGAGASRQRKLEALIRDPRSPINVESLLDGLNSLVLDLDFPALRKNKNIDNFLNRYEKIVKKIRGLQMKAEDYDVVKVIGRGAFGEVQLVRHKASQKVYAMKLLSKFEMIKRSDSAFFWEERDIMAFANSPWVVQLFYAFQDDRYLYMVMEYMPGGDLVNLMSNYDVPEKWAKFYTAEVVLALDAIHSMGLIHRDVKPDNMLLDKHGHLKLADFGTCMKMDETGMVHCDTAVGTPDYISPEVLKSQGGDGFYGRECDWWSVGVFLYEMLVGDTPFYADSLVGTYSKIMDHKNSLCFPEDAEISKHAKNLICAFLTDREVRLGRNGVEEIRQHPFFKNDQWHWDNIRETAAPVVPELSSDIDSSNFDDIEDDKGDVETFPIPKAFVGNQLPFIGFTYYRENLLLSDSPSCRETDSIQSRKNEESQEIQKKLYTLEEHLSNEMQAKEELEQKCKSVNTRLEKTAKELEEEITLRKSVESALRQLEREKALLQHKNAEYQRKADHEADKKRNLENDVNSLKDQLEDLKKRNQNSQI

Row | Hill Coefficient (nH) [2] | SMILES | % Max. IOP Reduction in Rabbit Eyes (Rabbit Eyes; [3]) | % Max. IOP Reduction in Rabbit Eyes (Rabbit Eyes; [4]) | % Max. IOP Reduction in Rabbit Eyes (Rabbit Eyes; [5]) | % Max. IOP Reduction in Rabbit Eyes (Rabbit Eyes; [6]) | % Max. IOP Reduction in Ocular Hypertensive Monkey Eyes [1, 9] | % Max. IOP Reduction in Ocular Hypertensive Monkey Eyes [1, 10] | % Max. IOP Reduction in Ocular Hypertensive Monkey Eyes [1, 11] | % Max. IOP Reduction in Ocular Hypertensive Monkey Eyes [1, 7] | % Max. IOP Reduction in Ocular Hypertensive Monkey Eyes [1, 8] | % Max. IOP Reduction in Ocular Hypertensive Monkey Eyes [1, 12] | % Max. IOP Reduction in Ocular Hypertensive Monkey Eyes [1, 3] | % Max. IOP Reduction in Ocular Hypertensive Monkey Eyes [1, 5] | % Max. IOP Reduction in Ocular Hypertensive Monkey Eyes [1, 15] | other results
1 | 0.6 ± 0.2 | Cc1cncc2c1=C(S(=O)(=O)N1CCCN(C)CC1C)CCC=2 (stereo not drawn) [B] |  |  |  |  |  |  |  |  |  |  |  |  |  | IC50 [2]: 0.485 ± 0.207 µM
2 | 0.94 ± 0.11 | Cc1cncc2cccc(S(=O)(=O)N3CCNC(C)C3)c12 (stereo not drawn) [F] |  |  |  |  |  |  |  |  |  |  | 23% | 20% | 20% | 
3 | 0.95 ± 0.16 | Cc1cncc2cccc(S(=O)(=O)N3CCCN(C)C(C)C3)c12 (stereo not drawn) [H] |  |  |  |  |  |  |  |  |  |  |  |  |  | 

More lines, now with the values behind:

Row | SMILES | Hill Coefficient (nH) [2] | % Max. IOP Reduction in Rabbit Eyes (Rabbit Eyes; [3]) | % Max. IOP Reduction in Rabbit Eyes (Rabbit Eyes; [4]) | % Max. IOP Reduction in Rabbit Eyes (Rabbit Eyes; [5]) | % Max. IOP Reduction in Rabbit Eyes (Rabbit Eyes; [6]) | % Max. IOP Reduction in Ocular Hypertensive Monkey Eyes [1, 9] | % Max. IOP Reduction in Ocular Hypertensive Monkey Eyes [1, 10] | % Max. IOP Reduction in Ocular Hypertensive Monkey Eyes [1, 11] | % Max. IOP Reduction in Ocular Hypertensive Monkey Eyes [1, 7] | % Max. IOP Reduction in Ocular Hypertensive Monkey Eyes [1, 8] | % Max. IOP Reduction in Ocular Hypertensive Monkey Eyes [1, 12] | % Max. IOP Reduction in Ocular Hypertensive Monkey Eyes [1, 3] | % Max. IOP Reduction in Ocular Hypertensive Monkey Eyes [1, 5] | % Max. IOP Reduction in Ocular Hypertensive Monkey Eyes [1, 15] | other results
4 | Cc1cncc2cccc(S(=O)(=O)N3CCCNCC3C)c12 (stereo not drawn) [A, HMN-1152] |  | 34% | 34% | 27% | 19% | 29% | 30% | 21% | 42% | 51% | 36% |  |  |  | % Max. IOP Reduction in Rabbit Eyes (Rabbit Eyes; [7]): 29%; % Max. IOP Reduction in Rabbit Eyes (Rabbit Eyes; topical ocular dose 1 mg, 2 Hours Post Dosing): 35%; % Max. IOP Reduction in Rabbit Eyes (Rabbit Eyes; [8]): 32%; % Max. IOP Reduction in Rabbit Eyes (Rabbit Eyes; topical ocular dose 1 mg, 4 Hours Post Dosing): 24%; % Max. IOP Reduction in Ocular Hypertensive Monkey Eyes ([1]; topical ocular dose 100 μg, 1 Hour Post Dosing): 28%; % Max. IOP Reduction in Ocular Hypertensive Monkey Eyes ([1]; topical ocular dose 100 μg, 3 Hours Post Dosing): 25%; % Max. IOP Reduction in Ocular Hypertensive Monkey Eyes ([1]; topical ocular dose 100 μg, 6 Hours Post Dosing): 19%
5 | O=S(=O)(c1cccc2cnccc12)N1CCCNCC1 [D, Fasudil, Fasudil] |  | 25% | 33% | 25% | 17% |  |  |  |  |  |  | 33% | 28% | 16% | % Max. IOP Reduction in Rabbit Eyes (Rabbit Eyes; [9]): 17%; % Max. IOP Reduction in Rabbit Eyes (Rabbit Eyes; [13]): 29%; % Max. IOP Reduction in Rabbit Eyes (Rabbit Eyes; [10]): 26%; % Max. IOP Reduction in Rabbit Eyes (Rabbit Eyes; [14]): 20%
6 | CC1CNCCN1S(=O)(=O)c1cccc2cnccc12 (stereo not drawn) [E, H-7] | 0.99 ± 0.13 | 19% | 11% | 0% | 6% |  |  |  | 31% | 21% | 12% |  |  |  | 
7 | CC(N)[C@H]1CC[C@H](C(=O)Nc2ccccc2)CC1 (stereo partly drawn) [G, Y-27632] |  |  |  |  |  | 15% | 14% | 8% | 24% | 36% | 32% |  |  |  | % Max. IOP Reduction in Rabbit Eyes (Rabbit Eyes; topical ocular dose 2 mg, 1 Hour Post Dosing): 26%; % Max. IOP Reduction in Rabbit Eyes (Rabbit Eyes; topical ocular dose 2 mg, 2 Hours Post Dosing): 28%; % Max. IOP Reduction in Rabbit Eyes (Rabbit Eyes; topical ocular dose 2 mg, 3 Hours Post Dosing): 29%; % Max. IOP Reduction in Rabbit Eyes (Rabbit Eyes; topical ocular dose 2 mg, 4 Hours Post Dosing): 27%
8 | CC1CN(S(=O)(=O)c2cccc3cnccc23)CCN1 (stereo not drawn) [I, HA-135] | 0.91 ± 0.28 |  |  |  |  |  |  |  |  |  |  | 19% | 15% | 1% | 
9 | O=S(=O)(c1cccc2c(Cl)cccc12)N1CCCNCC1 [J, ML-9] | 0.9 ± 0.3 |  |  |  |  | 7% | 6% | 5% |  |  |  |  |  |  | % Max. IOP Reduction in Rabbit Eyes (Rabbit Eyes; [9]): 8%; % Max. IOP Reduction in Rabbit Eyes (Rabbit Eyes; [13]): 23%; % Max. IOP Reduction in Rabbit Eyes (Rabbit Eyes; [10]): 0.4%; % Max. IOP Reduction in Rabbit Eyes (Rabbit Eyes; [14]): 6%; IC50 [2]: 12 µM
